Data taken from patent US20240099989A1, “AGENT FOR PREVENTING OR IMPROVING PERIPHERAL NEUROPATHY” (KINKI UNIVERSITY, priority 2021, published 2024).
Like-named read-outs stand apart in the source and are kept apart here.

Tested on: Peripheral Neuropathy in a Mouse Caused by Paclitaxel
Format: in vivo, Balb/c mice
Excerpt: Six to seven-week-old female Balb/c mice were used for the tests as with Example 1. All the mice were acclimated for seven days after arrival. Then, the mice were grouped into the following four groups: a control group, a group receiving paclitaxel, a group receiving xylitol, and a group receiving paclitaxel and xylitol (a group receiving paclitaxel+xylitol). Each group consisted of five mice.
On Day 8 of acclimation, the mice in the group receiving paclitaxel and the group receiving paclitaxel+xylitol were intraperitoneally administered with paclitaxel at a dose of 6 mg/kg. This day was designated as the first day of the administration (Day 0). Thereafter, these mice were intraperitoneally administered with paclitaxel at the same dose on Day 7 and Day 14 for a total of 3 doses.
The mice in the group receiving 100 mg/kg xylitol were orally administered with xylitol at a dose of 100 mg/kg daily from Day 0. The mice in the group receiving paclitaxel+100 mg/kg xylitol were orally administered with xylitol at a dose of 100 mg/kg daily from Day 6 of administration.
A test was performed on the mice in the four groups described in (6) of the present example (Example 2) to examine the effect of xylitol on paresthesia that is caused by a low temperature stimulus. The mice in respective groups were placed on a cold plate set at 10° C., and withdrawal response time (latent time) was measured. It is presumed that a shorter latent time reflects a greater degree of shunning the low temperature stimulus by the cold plate. […]
The mice in the group receiving 100 mg/kg D-threitol were orally administered with D-threitol at a dose of 100 mg/kg daily from Day 0. The mice in the group receiving paclitaxel+100 mg/kg D-threitol were orally administered with D-threitol at a dose of 100 mg/kg daily from Day 6 of administration.
A test was performed on the mice in the four groups described in (4) of the present example (Example 4) to examine the effect of D-threitol on paresthesia that is caused by a low temperature stimulus. The mice in respective groups were placed on a cold plate set at 10° C., and withdrawal response time (latent time) was measured. It is presumed that a shorter latent time reflects a greater degree of shunning the low temperature stimulus by the cold plate.
Six to seven-week-old female Balb/c mice were used for the tests as with Example 1. All the mice were acclimated for seven days after arrival. Then, the mice were grouped into the following four groups: a control group, a group receiving paclitaxel, a group receiving L-talitol, and a group receiving paclitaxel and L-talitol (a group receiving paclitaxel+L-talitol). Each group consisted of five mice.
On Day 8 of acclimation, the mice in the group receiving paclitaxel and the group receiving paclitaxel+L-talitol were intraperitoneally administered with paclitaxel at a dose of 6 mg/kg. This day was designated as Day 0 of administration. Thereafter, these mice were intraperitoneally administered with paclitaxel at a daily dose of 6 mg/kg on Day 7 and Day 14.
The mice in the group receiving L-talitol and the group receiving paclitaxel+L-talitol were orally administered with L-talitol at a dose of 5 mg/kg daily from Day 0.
A cold plate test was performed to examine the effect of L-talitol on paresthesia that is caused by a low temperature stimulus. The mice in the four groups described in (4) of the present example (Example 5) were placed on a cold plate set at 10° C., and withdrawal response time (latent time) was measured. It is presumed that a shorter latent time reflects a greater degree of shunning the low temperature stimulus by the cold plate.
On Day 8 of acclimation, the mice in the group receiving paclitaxel and the group receiving paclitaxel+L-talitol were intraperitoneally administered with paclitaxel at a dose of 6 mg/kg. This day was designated as the first day of the administration (Day 0). […]

[1] = 6 mg/kg paclitaxel + 5 mg/kg test substance orally daily from Day 0 (prevention)
[2] = 6 mg/kg paclitaxel + 100 mg/kg orally daily from Day 6, on Day 12, vs group receiving 6 mg/kg paclitaxel

Row | SMILES | withdrawal response time (latent time) [1] | withdrawal response time (latent time) [2]
1 | OC[C@@H](O)[C@H](O)CO [D-threitol] | approximately similar to that of the control group | significantly longer withdrawal response time
2 | OC[C@H](O)[C@H](O)[C@H](O)[C@@H](O)CO [L-talitol] | approximately similar to that of the control group | significantly longer withdrawal response time
3 | OC[C@@H](O)[C@H](O)[C@@H](O)CO [xylitol] | approximately similar to that of the control group | significantly longer withdrawal response time
